In PubChem BioAssay (NCI):
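Results reflect a 48-hour exposure of cells in 96-well plates to compound at five concentrations. GI50 is the concentration that inhibits growth by half. The concentration for full growth arrest is given as TGI.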

How the values were obtained:
Test in all cases: growth of human tumour cells (NCI), 48 h
[1] = tested on: SF-539 CNS
[2] = tested on: HCT-15 colon
[3] = tested on: NCI-H522 lung
[4] = tested on: U251 CNS
[5] = tested on: MDA-MB-231 breast
[6] = tested on: MCF7 breast
[7] = tested on: K-562 leukemia
[8] = tested on: M14 melanoma
[9] = tested on: MALME-3M melanoma
[10] = tested on: A549 NSCLC
[11] = tested on: TK-10 renal
[12] = tested on: OVCAR-5 ovarian
[13] = tested on: KM12 colon
[14] = tested on: HOP-92 NSCLC
[15] = tested on: T-47D breast
[16] = tested on: MDA-N
[17] = tested on: HOP-62 NSCLC
[18] = tested on: NCI-H23 lung
[19] = tested on: LOX IMVI melanoma
[20] = tested on: IGROV1 ovarian
[21] = tested on: HT29 colon
[22] = tested on: SF-295 CNS
[23] = tested on: OVCAR-4 ovarian
[24] = tested on: PC-3 prostate
[25] = tested on: RXF 393 renal
[26] = tested on: CCRF-CEM leukemia
[27] = tested on: OVCAR-8 ovarian
[28] = tested on: SNB-19 CNS
[29] = tested on: NCI/ADR-RES ovarian
[30] = tested on: HL-60(TB) leukemia
[31] = tested on: HS 578T breast
[32] = tested on: SNB-75 CNS
[33] = tested on: SK-MEL-5 melanoma
[34] = tested on: SW-620 colon
[35] = tested on: ACHN renal
[36] = tested on: HCT-116 colon
[37] = tested on: CAKI-1 renal
[38] = tested on: BT-549 breast
[39] = tested on: COLO 205 colon
[40] = tested on: 786-0 renal
[41] = tested on: UACC-62 melanoma
[42] = tested on: UACC-257 melanoma
[43] = tested on: SF-268 CNS
[44] = tested on: MOLT-4 leukemia
[45] = tested on: A498 renal
[46] = tested on: SK-MEL-28 melanoma
[47] = tested on: NCI-H460 lung
[48] = tested on: EKVX NSCLC
[49] = tested on: SK-MEL-2 melanoma
[50] = tested on: DU-145 prostate
[51] = tested on: MDA-MB-435
[52] = tested on: OVCAR-3 ovarian
[53] = tested on: UO-31 renal
[54] = tested on: HCC-2998 colon
[55] = tested on: SN12C renal
[56] = tested on: SK-OV-3 ovarian
[57] = tested on: NCI-H226 lung
[58] = tested on: RPMI-8226 leukemia
[59] = tested on: SR leukemia

S=C1Cc2c(-c3ccc(Br)cc3)cc(-c3ccccc3)nc2-c2ccccc2N1
TGI [1]: 12.2 µM | TGI [2]: 14.6 µM | TGI [3]: 8.04 µM | TGI [4]: 2.58 µM | TGI [5]: 3.72 µM | TGI [6]: > 100 µM | TGI [7]: > 100 µM | TGI [8]: 11.8 µM | TGI [9]: 7.41 µM | TGI [10]: 8.23 µM | GI50 [11]: 1.79 µM | TGI [11]: 3.75 µM | TGI [12]: 14.4 µM | TGI [13]: > 42 µM | TGI [14]: 4.41 µM | TGI [15]: 7.03 µM | TGI [16]: 9.03 µM | TGI [17]: 3.01 µM | TGI [18]: 12.6 µM | TGI [19]: 12.6 µM | TGI [20]: 2.94 µM | TGI [21]: 5.81 µM | TGI [22]: 5.4 µM | TGI [23]: 1.43 µM | TGI [24]: 23.3 µM | TGI [25]: 6.01 µM | TGI [26]: 11.2 µM | TGI [27]: 3.02 µM | TGI [28]: 3.52 µM | TGI [29]: 4.43 µM | TGI [30]: > 100 µM | TGI [31]: 3.84 µM | TGI [32]: 3.35 µM | TGI [33]: 23.5 µM | TGI [34]: 9.15 µM | GI50 [35]: 0.867 µM | TGI [35]: 2.35 µM | TGI [36]: 5.38 µM | TGI [37]: 3.65 µM | TGI [38]: 18 µM | TGI [39]: 21.4 µM | GI50 [40]: 0.632 µM | TGI [40]: 1.79 µM | TGI [41]: 5.45 µM | TGI [42]: 9.74 µM | TGI [43]: 6.19 µM | TGI [44]: 72 µM | TGI [45]: 3.71 µM | TGI [46]: 27.3 µM | TGI [47]: 2.66 µM | TGI [48]: 4.67 µM | TGI [49]: 20 µM | TGI [50]: 10.3 µM | TGI [51]: 20.6 µM | TGI [52]: 6.93 µM | TGI [53]: 4.77 µM | TGI [54]: 11.3 µM | TGI [55]: 2.97 µM | TGI [56]: 3.27 µM | TGI [57]: 8.54 µM | TGI [58]: 65.8 µM

Oc1ccc(Oc2cc3c(cc2Oc2ccc(O)cc2)-c2nc-3nc3[nH]c(nc4nc(nc5[nH]c(n2)c2cc(Oc6ccc(O)cc6)c(Oc6ccc(O)cc6)cc52)-c2cc(Oc5ccc(O)cc5)c(Oc5ccc(O)cc5)cc2-4)c2cc(Oc4ccc(O)cc4)c(Oc4ccc(O)cc4)cc32)cc1
TGI [1]: > 100 µM | TGI [2]: > 100 µM | TGI [3]: > 100 µM | TGI [4]: > 100 µM | TGI [5]: 52.4 µM | TGI [6]: > 100 µM | TGI [7]: > 100 µM | TGI [59]: > 100 µM | TGI [8]: 30.3 µM | TGI [9]: 47 µM | TGI [10]: > 100 µM | TGI [11]: > 100 µM | TGI [12]: > 100 µM | TGI [13]: > 100 µM | TGI [14]: > 100 µM | TGI [15]: > 100 µM | TGI [16]: > 100 µM | TGI [17]: > 100 µM | TGI [18]: > 100 µM | TGI [19]: > 100 µM | TGI [20]: > 100 µM | TGI [21]: > 100 µM | TGI [22]: 95.6 µM | TGI [23]: > 100 µM | TGI [24]: > 100 µM | TGI [26]: > 100 µM | TGI [27]: > 100 µM | TGI [28]: > 100 µM | TGI [29]: > 100 µM | TGI [31]: > 100 µM | TGI [32]: > 100 µM | TGI [33]: > 100 µM | TGI [34]: > 100 µM | TGI [35]: > 100 µM | TGI [36]: > 100 µM | TGI [37]: > 100 µM | TGI [38]: > 100 µM | TGI [39]: > 100 µM | TGI [40]: > 100 µM | TGI [41]: > 100 µM | TGI [42]: > 100 µM | TGI [43]: > 100 µM | TGI [44]: > 100 µM | TGI [46]: > 100 µM | TGI [47]: > 100 µM | TGI [48]: > 100 µM | TGI [51]: > 100 µM | TGI [52]: > 100 µM | TGI [53]: > 100 µM | TGI [54]: > 100 µM | TGI [55]: > 100 µM | TGI [56]: > 100 µM | TGI [57]: > 100 µM
